The source of these data is patent US20220079993A1, “NON-NATURALLY OCCURRING THERMOGENIC ADIPOCYTES, METHODS OF MAKING, AND METHODS OF USE THEREOF” (University of Georgia Research Foundation, Inc., priority 2019, published 2022).

Counter-ions that a name gives are not always drawn. Like-named read-outs stand apart in the source and are kept apart here.

One assay relates to beige adipocytes. The assay can be described thus: Lipolysis validation assays of primary hits at three concentrations. On the set-up: % of Control (1) / % of Control (2) / % of Control (3) / % of Control (4): unit of the concentration uncertain. The note with it: for activity at 2.2 µM / activity at 6.7 µM / activity at 20 µM / activity at 2200 µM: Homo sapiens, Adipocyte, 24 h; for activity at 2.2 µM: Conc. 2.2 µM; for activity at 6.7 µM: Conc. 6.7 µM; for activity at 20 µM: Conc. 20 µM; for activity at 2200 µM: Conc. 2.2 mM. Type of assay: cell-based, human. On the procedure:
ADSCs were seeded at 5000 cell/cm^2 in 12-well plates, grown for 5 days and then induced to differentiate into GC for 20 days. Prior to the assay, cells were washed in DPBS twice and then incubated with DMEM with 2% fatty-acid free BSA (Santa Crus, sc-500949) and Triascin C (5 μM). Cells were treated with forskolin (20 μM) for indicated time periods and supernatant samples were collected. Lipolysis assay was performed with free glycerol reagent (Sigma, F6428-40ML), according to manufacturer instructions.
Lipolysis assays were performed after 24 hours of drug treatment by measuring free glycerol released in the 384-well format, using the procedure described above. Absorbance for each compound was normalized to untreated control samples for each plate and calculated as a percent of the control. Cut-offs for “activating” and “inhibiting” compounds were set at 2-fold. Validation assays were performed for select compounds at a range of concentration doses.
Next, lipolysis assays were performed for all 111 compounds identified in the primary screen at three different concentrations, of which twenty-four were selected for further analysis based on their newness and/or reproducibility.

For the next assay, the system named is UCP1. The assay can be described thus: Secondary screen, UCP1 transcript levels by qRT-PCR. Type of assay: cell-based, human. The following applies: secondary screen of primary hits. The source says: FIG. 8A is a scheme used for high-throughput screening (HTS). FIG. 8B is a scatter-plot of glycerol release for each compound assayed (n=3889) in an HTS screen. Data are shown as the percentage of glycerol released compared to untreated beige adipocytes (% of control). FIG. 8C is a computational analysis of preliminary hits identified in the HTS using BiNChE. FIG. 8D is a plot showing the results of a secondary hit validation of primary compounds performed by evaluating levels of UCP1 transcript by qRT-PCR. Unstimulated beige cells, selected adrenergic agonists, and potential new non-adrenergic beige fat activators identified in the primary screen are shown. Transcript levels were normalized to UCP1 levels in ADSCs, n=3 for each technical 20 replicate. *P<0.0.05, **P<0.01, ***P<0.005. FIGS. 8E and 8F are bar graphs showing secondary screening of known thermogenic activators. Transcript levels of UCP1 were assayed in unstimulated ADSCs and ADSC-derived beige adipocytes and following treatment with forskolin (FSK, 20 μM), isoproterenol (1, 10 μM) (8E) and Mirabegron (1, 10 and 25 μM) (8F). Transcript levels were determined by qRT-PCR. n=3 for each independent replicate. Data are mean+/−standard deviation. *P<0.0.05, **P<0.01.
Cells were washed with DPBS, lysed directly on the plate and used for RNA isolation with the E.Z.N.A Total RNA Kit (Omega, R6834-02) according to manufacturer instructions. RNA quantitation was performed with the Biotek Synergy 2 plate reader and cDNA was synthesized using 1 ug of RNA with the iScript cDNA Synthesis Kit (Bio-Rad, 1708841). The qRT-PCR was performed on a ViiA7 Real-Time PCR System (ThermoFisher) using a TaqMan Universal PCR Master Mix (ThermoFisher, 4324020) according to manufacturer instructions with the following TaqMan primer/probe sets (UCP1, Hs01084772_m1), DIO2, Hs00988260_ml, 18S rRNA, Hs03928985_g1). Each assay was performed in triplicate and normalized to 18S rRNA and graphed as mean+/−standard deviation.
To determine if hits identified in the first-round screen activated the thermogenic program, UCP1 transcript levels were used as a readout. This secondary screen incorporated adrenergic agonists, such as Mirabegron, isoproterenol and phenylephrine, and eighteen additional compounds with no reported function in thermogenic regulation (FIG. 8D, 8E, 8F). 18/25 (72%) of the lipolysis-activating compounds identified in the primary screen also activate the thermogenic program through UCP1. Twelve of these compounds have no reported adrenergic agonist activity and could potentially operate through different signaling mechanisms (FIG. 8D and Table 9).

Consider `O=C1CN2Cc3c(ccc(Cl)c3Cl)N=C2N1` [Anagrelide HCl], for which, in the assay on beige adipocytes (read-out: % of Control (2)), the activity at 2.2 µM was found to be 146%, the activity at 6.7 µM was determined as 268% and the activity at 20 µM came to 183%. For the same compound, in the assay with beige adipocytes (read-out: % of Control (4)), the activity at 2.2 µM was determined as 144%, the activity at 6.7 µM stood at 156% and the activity at 20 µM was 161%. Further, in the assay with beige adipocytes (read-out: % of Control (1)), the activity at 6.7 µM came out at 195%, the activity at 20 µM was determined as 196% and the activity at 2200 µM amounted to 125%. In the assay with beige adipocytes (read-out: % of Control (3)), the activity at 6.7 µM came out at 191%, the activity at 20 µM amounted to 212% and the activity at 2200 µM amounted to 124%. Moreover, the “Activation of the thermogenic program (UCP1 transcript), in words” value (shortened to “Activation of the thermogenic program”) in the assay with UCP1 is “efficacy in beige cell activation”.

Take `Cc1cc(C)c(/C=C2\C(=O)Nc3ccccc32)[nH]1` [SU 5416]: the activity at 2.2 µM in the assay with beige adipocytes (read-out: % of Control (2)) was determined as 379%; in the assay with beige adipocytes (read-out: % of Control (4)), 232%. The activity at 6.7 µM with beige adipocytes (read-out: % of Control (1)) was found to be 349%; in the assay with beige adipocytes (read-out: % of Control (2)) it was 366%; with beige adipocytes (read-out: % of Control (3)), 251%; with beige adipocytes (read-out: % of Control (4)), 238%. The activity at 20 µM in the assay with beige adipocytes (read-out: % of Control (1)) amounted to 283%; in the assay with beige adipocytes (read-out: % of Control (2)), 267%; with beige adipocytes (read-out: % of Control (3)), 233%; in the assay with beige adipocytes (read-out: % of Control (4)) it was 246%. In addition, the activity at 2200 µM stood at 281% in the assay on beige adipocytes (read-out: % of Control (1)) and 214% in the assay with beige adipocytes (read-out: % of Control (3)). Moreover, the “Activation of the thermogenic program” value in the assay on UCP1 is “activators in both rounds of screening”.

Turning to `Cc1ccccc1N1CCN(S(=O)(=O)C[C@]23CC[C@H](C[C@@H]2NC(=O)[C@@H](N)CCS(C)(=O)=O)C3(C)C)CC1` [L-368, 899], in the assay with beige adipocytes (Conc. 2.2 (unit uncertain)), the “% of Control (1)” value is recorded as 196.9 % of Control, the “% of Control (2)” value is 128 % of Control, the “% of Control (3)” value is recorded as 118.57 % of Control and the “% of Control (4)” value is given as 91.72 % of Control. Also, in the assay on beige adipocytes (Conc. 6.7 (unit uncertain)), the “% of Control (1)” value is on record as 185.48 % of Control, the “% of Control (2)” value is given as 151.88 % of Control, the “% of Control (3)” value is reported as 130.11 % of Control and the “% of Control (4)” value was 148.51 % of Control. In the assay with beige adipocytes (Conc. 20 (unit uncertain)), the “% of Control (1)” value is 143.81 % of Control, the “% of Control (2)” value is 179.29 % of Control, the “% of Control (3)” value is listed as 192.97 % of Control and the “% of Control (4)” value is on record as 166.21 % of Control. The “Activation of the thermogenic program” value in the assay on UCP1 was “activators in both rounds of screening”.

In the case of `CC[C@@H]1C(=O)OC[C@@H]1Cc1cncn1C` [Pilocarpine nitrate], the activity at 2.2 µM in the assay with beige adipocytes (read-out: % of Control (2)) turned out to be 135%; with beige adipocytes (read-out: % of Control (4)), 89.8%. Also, the activity at 6.7 µM with beige adipocytes (read-out: % of Control (1)) was 220%; in the assay on beige adipocytes (read-out: % of Control (2)) it was 260%; in the assay on beige adipocytes (read-out: % of Control (3)), 167%; with beige adipocytes (read-out: % of Control (4)), 84.2%. In addition, the activity at 20 µM amounted to 200% with beige adipocytes (read-out: % of Control (1)), 290% in the assay on beige adipocytes (read-out: % of Control (2)), 230% in the assay on beige adipocytes (read-out: % of Control (3)) and 181% in the assay with beige adipocytes (read-out: % of Control (4)). Moreover, the activity at 2200 µM in the assay with beige adipocytes (read-out: % of Control (1)) was determined as 109%; with beige adipocytes (read-out: % of Control (3)), 176%. In addition, the “Activation of the thermogenic program” value in the assay on UCP1 is reported as “activators in both rounds of screening”.
